Measurements: PMC9571063 (Molecules, 2022)

What was measured:
Assay in all cases: KINOMEscan
Type in all cases: binding
Conditions in all cases: read-out: Percent Control
TRPM6 = biological target: T1, TRPM6 (Homo sapiens, UniProt Q9BX84)
T1 construct: purchased Eurofins DiscoverX KINOMEscan (scanMAX 468)

BTK = biological target: T2, BTK (Homo sapiens, UniProt Q06187)
T2 construct: purchased Eurofins DiscoverX KINOMEscan (scanMAX 468)

MST4 = biological target: T3, MST4 (Homo sapiens, UniProt Q9P289)
T3 construct: purchased Eurofins DiscoverX KINOMEscan (scanMAX 468)

KIT(V559D,V654A) = biological target: T4, KIT(V559D,V654A) (Homo sapiens, UniProt P10721, V559D/V654A)
T4 construct: purchased Eurofins DiscoverX KINOMEscan (scanMAX 468)

CAMKK2 = biological target: T5, CAMKK2 (Homo sapiens, UniProt Q96RR4)
T5 construct: purchased Eurofins DiscoverX KINOMEscan (scanMAX 468)

IRAK1 = biological target: T6, IRAK1 (Homo sapiens, UniProt P51617)
T6 construct: purchased Eurofins DiscoverX KINOMEscan (scanMAX 468)

FLT3(D835H) = biological target: T7, FLT3(D835H) (Homo sapiens, UniProt P36888, D835H)
T7 construct: purchased Eurofins DiscoverX KINOMEscan (scanMAX 468)

p38-delta = biological target: T8, p38-delta (Homo sapiens, UniProt O15264)
T8 construct: purchased Eurofins DiscoverX KINOMEscan (scanMAX 468)

[1] = biological target: T9, JAK1(JH1domain-catalytic) (Homo sapiens, UniProt P23458)
T9 construct: JAK1(JH1domain-catalytic); purchased Eurofins DiscoverX KINOMEscan (scanMAX 468)

ABL1-nonphosphorylated = biological target: T10, ABL1-nonphosphorylated (Homo sapiens, UniProt P00519)
T10 construct: purchased Eurofins DiscoverX KINOMEscan (scanMAX 468)

WEE1 = biological target: T11, WEE1 (Homo sapiens, UniProt P30291)
T11 construct: purchased Eurofins DiscoverX KINOMEscan (scanMAX 468)

FLT3(K663Q) = biological target: T12, FLT3(K663Q) (Homo sapiens, UniProt P36888, K663Q)
T12 construct: purchased Eurofins DiscoverX KINOMEscan (scanMAX 468)

ULK2 = biological target: T13, ULK2 (Homo sapiens, UniProt Q8IYT8)
T13 construct: purchased Eurofins DiscoverX KINOMEscan (scanMAX 468)

ALK(L1196M) = biological target: T14, ALK(L1196M) (Homo sapiens, UniProt Q9UM73, L1196M)
T14 construct: purchased Eurofins DiscoverX KINOMEscan (scanMAX 468)

[2] = biological target: T15, ABL1(F317L)-phosphorylated (Homo sapiens, UniProt P00519, F317L)
T15 construct: purchased Eurofins DiscoverX KINOMEscan (scanMAX 468)

PCTK3 = biological target: T16, PCTK3 (Homo sapiens, UniProt Q07002)
T16 construct: purchased Eurofins DiscoverX KINOMEscan (scanMAX 468)

LRRK2(G2019S) = biological target: T17, LRRK2(G2019S) (Homo sapiens, UniProt Q5S007, G2019S)
T17 construct: purchased Eurofins DiscoverX KINOMEscan (scanMAX 468)

LATS1 = biological target: T18, LATS1 (Homo sapiens, UniProt O95835)
T18 construct: purchased Eurofins DiscoverX KINOMEscan (scanMAX 468)

[3] = biological target: T19, RPS6KA4(Kin.Dom.2-C-terminal) (Homo sapiens, UniProt O75676)
T19 construct: RPS6KA4(Kin.Dom.2-C-terminal); purchased Eurofins DiscoverX KINOMEscan (scanMAX 468)

MEK1 = biological target: T20, MEK1 (Homo sapiens, UniProt Q02750)
T20 construct: purchased Eurofins DiscoverX KINOMEscan (scanMAX 468)

WNK2 = biological target: T21, WNK2 (Homo sapiens, UniProt Q9Y3S1)
T21 construct: purchased Eurofins DiscoverX KINOMEscan (scanMAX 468)

BRK = biological target: T22, BRK (Homo sapiens, UniProt Q13882)
T22 construct: purchased Eurofins DiscoverX KINOMEscan (scanMAX 468)

[4] = biological target: T23, ABL1(Q252H)-nonphosphorylated (Homo sapiens, UniProt P00519, Q252H)
T23 construct: purchased Eurofins DiscoverX KINOMEscan (scanMAX 468)

LATS2 = biological target: T24, LATS2 (Homo sapiens, UniProt Q9NRM7)
T24 construct: purchased Eurofins DiscoverX KINOMEscan (scanMAX 468)

RIPK4 = biological target: T25, RIPK4 (Homo sapiens, UniProt P57078)
T25 construct: purchased Eurofins DiscoverX KINOMEscan (scanMAX 468)

PRKD3 = biological target: T26, PRKD3 (Homo sapiens, UniProt O94806)
T26 construct: purchased Eurofins DiscoverX KINOMEscan (scanMAX 468)

PIK3C2G = biological target: T27, PIK3C2G (Homo sapiens, UniProt O75747)
T27 construct: purchased Eurofins DiscoverX KINOMEscan (scanMAX 468)

CDK9 = biological target: T28, CDK9 (Homo sapiens, UniProt P50750)
T28 construct: purchased Eurofins DiscoverX KINOMEscan (scanMAX 468)

TAK1 = biological target: T29, TAK1 (Homo sapiens, UniProt O43318)
T29 construct: purchased Eurofins DiscoverX KINOMEscan (scanMAX 468)

TAOK2 = biological target: T30, TAOK2 (Homo sapiens, UniProt Q9UL54)
T30 construct: purchased Eurofins DiscoverX KINOMEscan (scanMAX 468)

[5] = biological target: T31, ABL1(Q252H)-phosphorylated (Homo sapiens, UniProt P00519, Q252H)
T31 construct: purchased Eurofins DiscoverX KINOMEscan (scanMAX 468)

TNNI3K = biological target: T32, TNNI3K (Homo sapiens, UniProt Q59H18)
T32 construct: purchased Eurofins DiscoverX KINOMEscan (scanMAX 468)

[6] = biological target: T33, EGFR(L747-E749del, A750P) (Homo sapiens, UniProt P00533, A750P/DEL747-749)
T33 construct: purchased Eurofins DiscoverX KINOMEscan (scanMAX 468)

CSF1R = biological target: T34, CSF1R (Homo sapiens, UniProt P07333)
T34 construct: purchased Eurofins DiscoverX KINOMEscan (scanMAX 468)

ERBB2 = biological target: T35, ERBB2 (Homo sapiens, UniProt P04626)
T35 construct: purchased Eurofins DiscoverX KINOMEscan (scanMAX 468)

SIK2 = biological target: T36, SIK2 (Homo sapiens, UniProt Q9H0K1)
T36 construct: purchased Eurofins DiscoverX KINOMEscan (scanMAX 468)

PIK3CD = biological target: T37, PIK3CD (Homo sapiens, UniProt O00329)
T37 construct: purchased Eurofins DiscoverX KINOMEscan (scanMAX 468)

BIKE = biological target: T38, BIKE (Homo sapiens, UniProt Q9NSY1)
T38 construct: purchased Eurofins DiscoverX KINOMEscan (scanMAX 468)

CDKL3 = biological target: T39, CDKL3 (Homo sapiens, UniProt Q8IVW4)
T39 construct: purchased Eurofins DiscoverX KINOMEscan (scanMAX 468)

FGFR2 = biological target: T40, FGFR2 (Homo sapiens, UniProt P21802)
T40 construct: purchased Eurofins DiscoverX KINOMEscan (scanMAX 468)

MAP4K4 = biological target: T41, MAP4K4 (Homo sapiens, UniProt O95819)
T41 construct: purchased Eurofins DiscoverX KINOMEscan (scanMAX 468)

T19 sequence (O75676 372-772 limits assumed): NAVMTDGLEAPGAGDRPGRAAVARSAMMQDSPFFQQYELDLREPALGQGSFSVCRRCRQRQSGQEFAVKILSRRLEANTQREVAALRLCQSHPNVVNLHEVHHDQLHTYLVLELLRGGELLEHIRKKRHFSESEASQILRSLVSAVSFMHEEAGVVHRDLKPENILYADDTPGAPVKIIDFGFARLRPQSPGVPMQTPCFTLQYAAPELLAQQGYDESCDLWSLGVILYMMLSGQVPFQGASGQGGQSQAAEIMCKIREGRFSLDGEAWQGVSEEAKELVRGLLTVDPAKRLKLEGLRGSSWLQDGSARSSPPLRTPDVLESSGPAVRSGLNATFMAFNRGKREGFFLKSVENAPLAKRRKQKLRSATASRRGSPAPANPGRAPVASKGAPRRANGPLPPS
T40 sequence (P21802 22-821): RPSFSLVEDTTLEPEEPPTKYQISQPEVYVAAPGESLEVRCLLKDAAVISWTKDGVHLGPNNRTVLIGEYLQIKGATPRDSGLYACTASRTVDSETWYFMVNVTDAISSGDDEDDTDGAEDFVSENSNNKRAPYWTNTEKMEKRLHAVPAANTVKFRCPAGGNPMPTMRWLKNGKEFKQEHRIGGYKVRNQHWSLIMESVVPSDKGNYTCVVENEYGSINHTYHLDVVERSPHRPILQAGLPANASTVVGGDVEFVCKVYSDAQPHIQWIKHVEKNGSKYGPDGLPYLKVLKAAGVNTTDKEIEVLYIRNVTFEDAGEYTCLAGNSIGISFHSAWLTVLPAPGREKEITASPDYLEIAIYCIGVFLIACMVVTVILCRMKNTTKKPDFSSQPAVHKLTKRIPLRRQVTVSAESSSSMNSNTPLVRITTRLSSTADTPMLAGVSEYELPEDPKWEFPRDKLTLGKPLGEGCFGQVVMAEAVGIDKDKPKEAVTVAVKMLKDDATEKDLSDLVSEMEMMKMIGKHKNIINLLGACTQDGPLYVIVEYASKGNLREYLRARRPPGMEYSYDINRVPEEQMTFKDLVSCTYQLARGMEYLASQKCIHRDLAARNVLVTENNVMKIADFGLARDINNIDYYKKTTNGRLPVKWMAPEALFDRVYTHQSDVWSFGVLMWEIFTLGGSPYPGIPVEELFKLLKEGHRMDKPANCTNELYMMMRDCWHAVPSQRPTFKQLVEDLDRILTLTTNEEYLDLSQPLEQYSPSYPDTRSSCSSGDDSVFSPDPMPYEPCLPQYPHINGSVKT
T18 sequence (O95835 whole entry): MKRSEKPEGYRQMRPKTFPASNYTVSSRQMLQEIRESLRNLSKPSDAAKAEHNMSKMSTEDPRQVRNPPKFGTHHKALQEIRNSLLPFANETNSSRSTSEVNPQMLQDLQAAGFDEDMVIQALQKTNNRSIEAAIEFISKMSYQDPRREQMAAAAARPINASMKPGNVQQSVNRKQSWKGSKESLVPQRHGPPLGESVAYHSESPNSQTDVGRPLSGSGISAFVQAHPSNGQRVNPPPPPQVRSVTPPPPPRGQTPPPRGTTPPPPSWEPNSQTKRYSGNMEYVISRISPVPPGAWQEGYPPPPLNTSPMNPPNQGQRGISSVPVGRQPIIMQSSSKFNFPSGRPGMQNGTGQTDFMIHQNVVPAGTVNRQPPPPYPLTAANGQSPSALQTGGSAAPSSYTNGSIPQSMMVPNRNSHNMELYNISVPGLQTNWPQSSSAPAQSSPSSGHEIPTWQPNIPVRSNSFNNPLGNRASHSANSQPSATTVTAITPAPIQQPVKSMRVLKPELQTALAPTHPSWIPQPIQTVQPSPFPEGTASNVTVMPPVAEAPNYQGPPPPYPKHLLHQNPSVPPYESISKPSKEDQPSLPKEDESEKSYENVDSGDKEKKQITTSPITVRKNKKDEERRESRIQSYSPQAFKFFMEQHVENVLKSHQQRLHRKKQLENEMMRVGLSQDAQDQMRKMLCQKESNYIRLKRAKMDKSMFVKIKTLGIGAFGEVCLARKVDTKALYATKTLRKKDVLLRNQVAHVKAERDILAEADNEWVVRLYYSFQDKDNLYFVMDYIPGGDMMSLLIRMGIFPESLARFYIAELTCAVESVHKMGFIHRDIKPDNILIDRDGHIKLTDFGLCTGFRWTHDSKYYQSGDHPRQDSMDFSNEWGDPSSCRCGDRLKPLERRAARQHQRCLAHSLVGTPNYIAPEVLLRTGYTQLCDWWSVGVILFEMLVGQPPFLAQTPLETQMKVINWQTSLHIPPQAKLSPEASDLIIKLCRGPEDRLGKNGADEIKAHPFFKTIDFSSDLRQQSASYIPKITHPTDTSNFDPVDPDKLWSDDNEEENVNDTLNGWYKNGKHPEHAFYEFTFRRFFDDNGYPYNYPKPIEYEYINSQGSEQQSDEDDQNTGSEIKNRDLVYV
T1 sequence (Q9BX84 whole entry): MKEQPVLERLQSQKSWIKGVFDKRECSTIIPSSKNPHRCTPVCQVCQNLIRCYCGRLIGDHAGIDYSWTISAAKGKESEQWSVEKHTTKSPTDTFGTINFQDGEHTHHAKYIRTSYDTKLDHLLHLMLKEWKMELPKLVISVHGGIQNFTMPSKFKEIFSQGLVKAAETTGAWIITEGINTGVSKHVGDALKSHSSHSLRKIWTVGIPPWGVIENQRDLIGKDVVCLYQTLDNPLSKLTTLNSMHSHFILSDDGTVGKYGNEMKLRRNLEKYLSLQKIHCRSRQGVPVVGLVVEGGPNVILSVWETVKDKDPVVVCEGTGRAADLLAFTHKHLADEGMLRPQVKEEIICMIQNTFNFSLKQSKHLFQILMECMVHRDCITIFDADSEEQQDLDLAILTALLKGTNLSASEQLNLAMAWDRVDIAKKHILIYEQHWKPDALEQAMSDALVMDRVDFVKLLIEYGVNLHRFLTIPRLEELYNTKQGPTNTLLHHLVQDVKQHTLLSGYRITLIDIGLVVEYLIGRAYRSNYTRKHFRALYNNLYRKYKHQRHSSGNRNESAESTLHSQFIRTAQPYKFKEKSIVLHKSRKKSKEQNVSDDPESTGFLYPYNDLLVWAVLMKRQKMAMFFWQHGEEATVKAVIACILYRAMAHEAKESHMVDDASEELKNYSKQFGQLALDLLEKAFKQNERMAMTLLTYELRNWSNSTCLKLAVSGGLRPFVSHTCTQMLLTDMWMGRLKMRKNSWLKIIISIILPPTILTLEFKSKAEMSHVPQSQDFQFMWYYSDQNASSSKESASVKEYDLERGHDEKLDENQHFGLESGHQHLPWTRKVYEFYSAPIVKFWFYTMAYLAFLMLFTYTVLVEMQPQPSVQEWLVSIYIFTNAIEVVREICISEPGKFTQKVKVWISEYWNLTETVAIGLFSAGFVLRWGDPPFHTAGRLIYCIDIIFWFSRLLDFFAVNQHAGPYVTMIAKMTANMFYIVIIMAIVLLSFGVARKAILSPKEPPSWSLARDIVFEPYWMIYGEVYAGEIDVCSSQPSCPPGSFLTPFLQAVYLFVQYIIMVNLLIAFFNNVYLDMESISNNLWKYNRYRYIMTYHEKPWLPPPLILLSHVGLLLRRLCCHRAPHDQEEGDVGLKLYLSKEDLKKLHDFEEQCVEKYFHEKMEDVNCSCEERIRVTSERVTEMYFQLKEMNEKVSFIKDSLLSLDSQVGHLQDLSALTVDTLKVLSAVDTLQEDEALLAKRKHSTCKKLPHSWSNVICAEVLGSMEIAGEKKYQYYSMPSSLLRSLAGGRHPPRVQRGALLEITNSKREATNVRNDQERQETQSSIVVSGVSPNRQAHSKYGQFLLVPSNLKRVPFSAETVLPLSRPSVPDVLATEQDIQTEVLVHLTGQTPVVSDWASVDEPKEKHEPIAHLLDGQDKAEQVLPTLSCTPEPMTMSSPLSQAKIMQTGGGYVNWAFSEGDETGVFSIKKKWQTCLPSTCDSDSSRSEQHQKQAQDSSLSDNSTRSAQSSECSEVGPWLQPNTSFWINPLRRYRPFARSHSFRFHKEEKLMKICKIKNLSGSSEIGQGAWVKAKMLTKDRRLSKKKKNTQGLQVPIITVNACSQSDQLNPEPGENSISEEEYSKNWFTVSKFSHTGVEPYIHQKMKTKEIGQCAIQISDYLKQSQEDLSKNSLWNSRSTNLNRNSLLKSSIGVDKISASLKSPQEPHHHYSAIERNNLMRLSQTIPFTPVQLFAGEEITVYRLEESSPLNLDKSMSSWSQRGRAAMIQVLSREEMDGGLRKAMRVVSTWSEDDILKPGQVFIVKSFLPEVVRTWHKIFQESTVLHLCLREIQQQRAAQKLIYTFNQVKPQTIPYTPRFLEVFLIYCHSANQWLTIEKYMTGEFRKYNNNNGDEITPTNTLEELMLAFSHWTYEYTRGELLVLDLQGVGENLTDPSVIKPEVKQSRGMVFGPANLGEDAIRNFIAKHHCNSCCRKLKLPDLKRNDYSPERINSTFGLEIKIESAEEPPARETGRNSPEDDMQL
T5 sequence (Q96RR4 whole entry): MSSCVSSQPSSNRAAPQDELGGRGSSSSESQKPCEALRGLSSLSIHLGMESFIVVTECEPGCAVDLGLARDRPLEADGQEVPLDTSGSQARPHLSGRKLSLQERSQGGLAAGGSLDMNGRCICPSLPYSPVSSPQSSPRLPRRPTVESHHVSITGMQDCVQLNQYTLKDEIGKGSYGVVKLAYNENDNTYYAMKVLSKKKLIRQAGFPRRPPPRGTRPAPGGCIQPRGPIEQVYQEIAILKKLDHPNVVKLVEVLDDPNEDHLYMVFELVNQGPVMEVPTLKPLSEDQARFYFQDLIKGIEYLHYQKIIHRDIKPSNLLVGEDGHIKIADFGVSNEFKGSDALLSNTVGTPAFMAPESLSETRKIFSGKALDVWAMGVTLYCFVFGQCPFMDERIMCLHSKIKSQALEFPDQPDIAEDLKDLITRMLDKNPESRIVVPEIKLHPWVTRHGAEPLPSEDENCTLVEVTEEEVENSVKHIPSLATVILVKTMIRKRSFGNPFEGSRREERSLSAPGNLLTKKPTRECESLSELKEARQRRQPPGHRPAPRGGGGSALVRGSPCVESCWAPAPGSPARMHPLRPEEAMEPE

Cc1ccc(-n2cc(COc3cccc4cnc(Nc5cccc(Cl)c5)nc34)nn2)c([N+](=O)[O-])c1 [DB18]
remaining binding at 1 µM (TRPM6): 91% | remaining binding at 1 µM (BTK): 100% | remaining binding at 1 µM (MST4): 97% | remaining binding at 1 µM (KIT(V559D,V654A)): 100% | remaining binding at 1 µM (CAMKK2): 100% | remaining binding at 1 µM (IRAK1): 100% | remaining binding at 1 µM (FLT3(D835H)): 55% | remaining binding at 1 µM (p38-delta): 100% | remaining binding at 1 µM [1]: 100% | remaining binding at 1 µM (ABL1-nonphosphorylated): 85% | remaining binding at 1 µM (WEE1): 100% | remaining binding at 1 µM (FLT3(K663Q)): 69% | remaining binding at 1 µM (ULK2): 100% | remaining binding at 1 µM (ALK(L1196M)): 98% | remaining binding at 1 µM [2]: 100% | remaining binding at 1 µM (PCTK3): 100% | remaining binding at 1 µM (LRRK2(G2019S)): 95% | remaining binding at 1 µM (LATS1): 99% | remaining binding at 1 µM [3]: 100% | remaining binding at 1 µM (MEK1): 97% | remaining binding at 1 µM (WNK2): 67% | remaining binding at 1 µM (BRK): 100% | remaining binding at 1 µM [4]: 88% | remaining binding at 1 µM (LATS2): 100% | remaining binding at 1 µM (RIPK4): 82% | remaining binding at 1 µM (PRKD3): 100% | remaining binding at 1 µM (PIK3C2G): 97% | remaining binding at 1 µM (CDK9): 100% | remaining binding at 1 µM (TAK1): 100% | remaining binding at 1 µM (TAOK2): 98% | remaining binding at 1 µM [5]: 100% | remaining binding at 1 µM (TNNI3K): 92% | remaining binding at 1 µM [6]: 93% | remaining binding at 1 µM (CSF1R): 100% | remaining binding at 1 µM (ERBB2): 57% | remaining binding at 1 µM (SIK2): 100% | remaining binding at 1 µM (PIK3CD): 100% | remaining binding at 1 µM (BIKE): 99% | remaining binding at 1 µM (CDKL3): 94% | remaining binding at 1 µM (FGFR2): 100% | remaining binding at 1 µM (MAP4K4): 100%
